Data as given in patent US20240208953A1, “"Cyclopenta[c]pyrrol Negative Allosteric Modulators of NR2B"” (Novartis AG, priority 2021, published 2024).

target: NR2B (Rattus norvegicus (Rat), UniProt Q00960); assay: NR2B rat cortical neuron calcium influx assay; assay type: cell-based; conditions: rat cortical neurons, glutamate and glycine stimulated calcium influx
From the text: Example 1: NR2B Rat Cortical Neuron Calcium Influx Assay Protocol
Embryonic day 18 timed pregnant Sprague Dawley rats were euthanized according to Institutional Animal Care and Use Committee (IACUC) protocol. After cutting medially through the skin and exposing the uterus and embryos, fetuses were removed and placed in cold Hibernate medium. Each embryo's brain was extracted and cerebral cortices were isolated by removing the midbrain and meninges. The dissected cortices were then dissociated into the neurons using papain dissociation system (Worthington Biochemical Corporation) according the manufacturer's protocol.
Dissociated neurons were counted and plated into 384-well poly-D-lysine coated plates (Corning® BioCoat™) at a density of 20,000 cells/well in 30 μL of Neurobasal/B27 complete medium. Neurons were cultured at 37° C. for 2 days. On the assay day, medium was removed and cells were incubated with 20 μL/well of calcium dye (Calcium 6 Assay Kit, Molecular Devices) suspended in HBSS with 1.8 mM Ca^2+ (Ca-HBSS) according to the manufacturer's instruction.
Compounds of interest from 10 mM stock were serially diluted into 3× of desired concentrations in 1.8 mM Ca-HBSS, and 10 μL were added to the wells. Compound and the neurons were incubated at 37° C. for 2 hours in the dark.
On FDSS7000EX (Hamamatsu Photonics), a fluorescence measuring instrument, 10 μL of 4× ligand solution containing glutamate and glycine made in 1.8 mM Ca^2+-HBSS were added to each well. The fluorescent signals were collected before and after the addition of ligands for a total of 2 minutes. The data were converted to a ratio of the peak fluorescence to the fluorescence at the beginning of the measurement.
Each data point was measured in duplicates. Dose response curves were used to identify IC50 and maximal inhibition values. IC50 represents the concentration in μM of compound at which there is a half-maximal compound effect. Maximal inhibition of a compound is expressed as a percent of the highest inhibition of activity over a no compound control.

Sequence of NR2B (Q00960 27-1482, other chains not shown): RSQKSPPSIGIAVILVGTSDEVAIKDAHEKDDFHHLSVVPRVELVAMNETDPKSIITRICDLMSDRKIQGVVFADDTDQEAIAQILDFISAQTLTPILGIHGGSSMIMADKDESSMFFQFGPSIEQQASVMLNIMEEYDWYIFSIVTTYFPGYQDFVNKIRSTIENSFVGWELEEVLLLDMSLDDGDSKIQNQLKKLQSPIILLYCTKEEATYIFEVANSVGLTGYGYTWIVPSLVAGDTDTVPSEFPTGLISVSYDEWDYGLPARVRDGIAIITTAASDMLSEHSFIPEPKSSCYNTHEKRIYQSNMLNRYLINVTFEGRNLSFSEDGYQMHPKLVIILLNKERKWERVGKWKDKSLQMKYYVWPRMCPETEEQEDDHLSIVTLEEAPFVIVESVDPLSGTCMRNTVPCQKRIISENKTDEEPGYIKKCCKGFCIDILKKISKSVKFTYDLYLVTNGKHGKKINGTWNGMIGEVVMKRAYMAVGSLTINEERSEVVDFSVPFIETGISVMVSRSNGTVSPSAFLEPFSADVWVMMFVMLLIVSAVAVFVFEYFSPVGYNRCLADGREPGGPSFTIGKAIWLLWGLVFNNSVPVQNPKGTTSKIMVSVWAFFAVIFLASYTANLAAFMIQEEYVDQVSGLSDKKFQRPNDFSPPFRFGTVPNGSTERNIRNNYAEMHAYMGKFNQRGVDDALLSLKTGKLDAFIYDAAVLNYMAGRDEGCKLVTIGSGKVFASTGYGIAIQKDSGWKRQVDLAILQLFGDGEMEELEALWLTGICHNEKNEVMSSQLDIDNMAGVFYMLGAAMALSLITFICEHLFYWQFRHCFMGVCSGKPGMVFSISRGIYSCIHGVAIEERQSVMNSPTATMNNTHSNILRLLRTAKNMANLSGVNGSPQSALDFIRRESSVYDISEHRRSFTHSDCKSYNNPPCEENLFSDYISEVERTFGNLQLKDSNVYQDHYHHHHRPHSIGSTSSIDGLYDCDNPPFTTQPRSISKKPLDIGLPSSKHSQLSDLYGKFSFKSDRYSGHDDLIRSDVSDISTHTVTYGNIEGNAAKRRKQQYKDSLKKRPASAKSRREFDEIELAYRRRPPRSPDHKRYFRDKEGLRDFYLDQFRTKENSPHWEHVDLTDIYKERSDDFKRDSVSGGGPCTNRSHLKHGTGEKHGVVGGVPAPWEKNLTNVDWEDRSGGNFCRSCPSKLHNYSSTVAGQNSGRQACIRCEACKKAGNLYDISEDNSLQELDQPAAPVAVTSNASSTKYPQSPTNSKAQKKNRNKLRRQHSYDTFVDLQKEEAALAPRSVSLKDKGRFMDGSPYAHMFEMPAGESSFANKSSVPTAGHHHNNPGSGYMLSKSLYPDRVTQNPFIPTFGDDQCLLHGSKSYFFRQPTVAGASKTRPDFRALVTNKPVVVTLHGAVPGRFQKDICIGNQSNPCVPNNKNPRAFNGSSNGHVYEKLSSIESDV

IC50	Compound
960 nM	9-fluoro-7-((R)-1-hydroxy-2-((3aS,5S,6aR)-3a-hydroxy-5-phenoxyhexahydrocyclopenta[c]pyrrol-2(1H)-yl)ethyl)-1,5-dihydrobenzo[e][1,4]oxazepin-2(3H)-one [Example 32A]
1060 nM	O=C1CCc2cc([C@H](O)CN3C[C@H]4C[C@H](Oc5ccccc5F)C[C@@]4(O)C3)cc(F)c2N1 (single isomer, unassigned) [Example 6B]
2.6 nM	CC1(C)Cc2cc([C@H](O)CN3C[C@H]4C[C@H](Oc5ccccc5)C[C@@]4(O)C3)ccc2NC1=O (single isomer, unassigned) [Example 11B]
0.25 nM	O=C1Nc2ccc([C@H](O)CN3C[C@H]4C[C@H](Oc5ccccc5F)C[C@@]4(O)C3)cc2CCO1 (single isomer, unassigned) [Example 12B]
2 nM	O=c1[nH]c2c(F)cc([C@@H](O)CN3C[C@H]4C[C@H](Oc5ccccc5)C[C@@]4(O)C3)cc2cc1F (single isomer, unassigned) [Example 20A]
23 nM	O=C1CCc2cc([C@@H](O)CN3C[C@H]4C[C@H](Oc5ccc(F)cc5)C[C@@]4(O)C3)ccc2N1 (single isomer, unassigned) [Example 22A]
420 nM	O=C1CCc2cc([C@H](O)CN3C[C@H]4C[C@H](Oc5ccc(F)cc5)C[C@@]4(O)C3)ccc2N1 (single isomer, unassigned) [Example 22B]
1.6 nM	O=C1CCc2cc([C@H](O)CN3C[C@@H]4C[C@@H](Oc5ccc(F)cc5)C[C@]4(O)C3)ccc2N1 (single isomer, unassigned) [Example 22D]
33 nM	O=C1CCc2cc([C@@H](O)CN3C[C@H]4C[C@H](Oc5cccc(F)c5)C[C@@]4(O)C3)ccc2N1 (single isomer, unassigned) [Example 23A]
280 nM	O=C1CCc2cc([C@H](O)CN3C[C@H]4C[C@H](Oc5cccc(F)c5)C[C@@]4(O)C3)ccc2N1 (single isomer, unassigned) [Example 23B]
16 nM	O=C1CCc2cc([C@@H](O)CN3C[C@H]4C[C@H](Oc5cccc(F)c5F)C[C@@]4(O)C3)ccc2N1 (single isomer, unassigned) [Example 24A]
57 nM	O=C1CCc2cc([C@H](O)CN3C[C@H]4C[C@H](Oc5cccc(F)c5F)C[C@@]4(O)C3)ccc2N1 (single isomer, unassigned) [Example 24B]
> 1100 nM	O=C1CCc2cc([C@@H](O)CN3C[C@H]4C[C@H](Oc5ccc(F)cc5F)C[C@@]4(O)C3)ccc2N1 (single isomer, unassigned) [Example 25A]
14 nM	O=C1CCc2cc([C@H](O)CN3C[C@H]4C[C@H](Oc5ccc(F)cc5F)C[C@@]4(O)C3)ccc2N1 (single isomer, unassigned) [Example 25B]
0.22 nM	O=C1CCc2cc([C@H](O)CN3C[C@@H]4C[C@@H](Oc5ccc(F)cc5F)C[C@]4(O)C3)ccc2N1 (single isomer, unassigned) [Example 25D]
250 nM	O=C1CCc2cc([C@@H](O)CN3C[C@H]4C[C@H](Oc5cc(F)ccc5F)C[C@@]4(O)C3)ccc2N1 (single isomer, unassigned) [Example 26A]

IC50	Compound
470 nM	O=C1CCc2cc([C@H](O)CN3C[C@H]4C[C@H](Oc5cc(F)ccc5F)C[C@@]4(O)C3)ccc2N1 (single isomer, unassigned) [Example 26B]
> 1100 nM	O=C1CCc2cc([C@@H](O)CN3C[C@H]4C[C@H](Oc5c(F)cccc5F)C[C@@]4(O)C3)ccc2N1 (single isomer, unassigned) [Example 27A]
290 nM	O=C1CCc2cc([C@H](O)CN3C[C@H]4C[C@H](Oc5c(F)cccc5F)C[C@@]4(O)C3)ccc2N1 (single isomer, unassigned) [Example 27B]
17 nM	O=C1CCCc2cc([C@H](O)CN3C[C@H]4C[C@H](Oc5ccccc5)C[C@@]4(O)C3)cc(F)c2N1 (single isomer, unassigned) [Example 30B]
600 nM	O=C1COCc2cc([C@H](O)CN3C[C@H]4C[C@H](Oc5ccccc5)C[C@@]4(O)C3)cc(F)c2N1 (single isomer, unassigned) [Example 32B]
6.5 nM	O=C1Nc2c(F)cc([C@H](O)CN3C[C@H]4C[C@H](Oc5ccccc5)C[C@@]4(O)C3)c(F)c2CO1 (single isomer, unassigned) [Example 37B]
7.8 nM	O=C1Nc2c(cc([C@H](O)CN3C[C@H]4C[C@H](Oc5ccccc5)C[C@@]4(O)C3)c(F)c2F)CO1 (single isomer, unassigned) [Example 38B]
26 nM	O=c1[nH]c2ccc([C@@H](O)CN3C[C@H]4C[C@H](Oc5ccccc5)C[C@@]4(O)C3)cc2o1 (single isomer, unassigned) [Example 39A]
86 nM	O=c1[nH]c2ccc([C@H](O)CN3C[C@H]4C[C@H](Oc5ccccc5)C[C@@]4(O)C3)cc2o1 (single isomer, unassigned) [Example 39B]
6.9 nM	O=c1[nH]c2ccc([C@@H](O)CN3C[C@H]4C[C@H](Oc5ccccc5F)C[C@@]4(O)C3)cc2o1 (single isomer, unassigned) [Example 40A]
28 nM	O=c1[nH]c2ccc([C@H](O)CN3C[C@H]4C[C@H](Oc5ccccc5F)C[C@@]4(O)C3)cc2o1 (single isomer, unassigned) [Example 40B]
1.2 nM	O=C1CCCc2cc([C@H](O)CN3C[C@H]4C[C@H](Oc5ccccc5F)C[C@@]4(O)C3)ccc2N1 (single isomer, unassigned) [Example 43B]
400 nM	O=C1Cc2cc([C@@H](O)CN3C[C@H]4C[C@H](Oc5ccccc5)[C@H](O)[C@@]4(O)C3)ccc2N1 [Example 3C, 5-((R)-2-((3aS,4S,5S,6aR)-3a,4-dihydroxy-5-phenoxyhexahydrocyclopenta[c]pyrrol-2(1H)-yl)-1-hydroxyethyl)indolin-2-one]
75 nM	O=C1Cc2cc([C@H](O)CN3C[C@H]4C[C@H](Oc5ccccc5)[C@H](O)[C@@]4(O)C3)ccc2N1 [Example 3D, 5-((S)-2-((3aS,4S,5S,6aR)-3a,4-dihydroxy-5-phenoxyhexahydrocyclopenta[c]pyrrol-2(1H)-yl)-1-hydroxyethyl)indolin-2-one]
130 nM	O=C1CCc2cc([C@H](O)CN3C[C@H]4C[C@H](Oc5ccccc5F)C[C@@]4(O)C3)ccc2N1 [Example 5B, 6-((S)-2-((3aS,5S,6aR)-5-(2-fluorophenoxy)-3a-hydroxyhexahydrocyclopenta[c]pyrrol-2(1H)-yl)-1-hydroxyethyl)-3,4-dihydroquinolin-2(1H)-one]

Compound	IC50
O=C1Nc2c(F)cc([C@@H](O)CN3C[C@H]4C[C@H](Oc5ccccc5)C[C@@]4(O)C3)cc2C[C@@H]1F [Example 19]	8.7 nM

target: P-glycoprotein (P-gp) (Homo sapiens (Human), UniProt P08183); assay: MDCK-MDR1 permeability / efflux assay; assay type: in vitro ADME; conditions: efflux ratio, 10 μM, 120 min
Protocol: Example 4. Experimental Measurement of Efflux with MDCK-MDR1 Protocol
Cell Culture. MDCK-MDR1 cells were cultured at 37° C. under a 5% CO2 atmosphere, at 95% relative humidity in DMEM containing 10% FBS, penicillin-streptomycin (100 μg/mL), and 2 mM Ala-Gln. Cells were passaged every 3-4 days. For assay purposes, cells were seeded at a density of approximately 265,000 cells/cm^2 of a 96-well Transwell plate (Corning Life Sciences, Acton, MA) and cultured in the same media noted above for a period of 4 days.
Assay. The determination of the apparent permeability (Papp) was performed in both the A→B (apical to basal) and B→A (basal to apical) directions where each compound was assayed in triplicate. The zwitterion bestatin, a poorly permeably compound, was used as marker of monolayer integrity. To initiate the assay, media was aspirated, and the cells and basal chambers were washed three times with Hank's Balanced Salt Solution (HBSS) containing 10 mM HEPES (pH 7.4). Compound test solutions were prepared in triplicate in HBSS containing 10 mM HEPES (pH 7.4) and 0.02% bovine serum albumin (BSA) to a final concentration of 10 μM and centrifuged for 2 min at 4000×g, then applied to the donor compartment at time zero. Additionally, at time zero, a 37° C. solution without test articles (HBSS+10 mM HEPES (pH 7.4) plus 0.02% BSA) was added to the receiver chamber of the Transwell plate. A time zero sample of the donor solution was also sampled for further analysis. The assay was conducted for a period of 120 min at 37° C. without shaking. At the time of assay termination, samples were taken from each donor compartment, and each acceptor compartment of the Transwell plate. To each of the 0 and 120 min samples was added an internal standard solution containing glyburide in water:acetonitrile, 50:50 (v:v). Concentration curves were prepared using a Labcyte Echo in the same matrix noted above. Samples and concentration curve samples were centrifuged for 10 min at 4000×g and subsequently analyzed by mass spectroscopy.
Mass Spectroscopy. Assay samples were loaded onto a RapidFire C4 cartridge by means of a RapidFire autosampler (Agilent, Santa Clara, CA). […] Mass spectroscopy was performed using an AB Sciex AP15500 (Sciex, Frammingham, MA) equipped with a turbo ion spray source. The analyte concentration was calculated from the chromatographic peak area ratio of analyte to internal standard (glibenclamide, m/z 494→169), using Multiquant software V3.0 (Sciex, Framingham, MA).
Calculations. Papp values were determined as
Percent recovery values were determined as:
where VA is the volume of the acceptor (mL), S is the surface area of the membrane, D0 is the donor solution concentration at t=0, D120 is the donor solution concentration at t=120, A120 is the acceptor solution concentration at t=120, and t=time (seconds).
The suitability of a compound for oral dosing and/or for use as a CNS therapeutic is usually conducted by MDCK-MDR1 permeability assay to investigate its drug efflux potential mediated by P-glycoprotein (P-gp). MDCK-MDR1 permeability has been used as a predictor of blood brain barrier permeability in terms of efflux ratio (ER).

Sequence of P-glycoprotein (P-gp) (P08183 whole entry): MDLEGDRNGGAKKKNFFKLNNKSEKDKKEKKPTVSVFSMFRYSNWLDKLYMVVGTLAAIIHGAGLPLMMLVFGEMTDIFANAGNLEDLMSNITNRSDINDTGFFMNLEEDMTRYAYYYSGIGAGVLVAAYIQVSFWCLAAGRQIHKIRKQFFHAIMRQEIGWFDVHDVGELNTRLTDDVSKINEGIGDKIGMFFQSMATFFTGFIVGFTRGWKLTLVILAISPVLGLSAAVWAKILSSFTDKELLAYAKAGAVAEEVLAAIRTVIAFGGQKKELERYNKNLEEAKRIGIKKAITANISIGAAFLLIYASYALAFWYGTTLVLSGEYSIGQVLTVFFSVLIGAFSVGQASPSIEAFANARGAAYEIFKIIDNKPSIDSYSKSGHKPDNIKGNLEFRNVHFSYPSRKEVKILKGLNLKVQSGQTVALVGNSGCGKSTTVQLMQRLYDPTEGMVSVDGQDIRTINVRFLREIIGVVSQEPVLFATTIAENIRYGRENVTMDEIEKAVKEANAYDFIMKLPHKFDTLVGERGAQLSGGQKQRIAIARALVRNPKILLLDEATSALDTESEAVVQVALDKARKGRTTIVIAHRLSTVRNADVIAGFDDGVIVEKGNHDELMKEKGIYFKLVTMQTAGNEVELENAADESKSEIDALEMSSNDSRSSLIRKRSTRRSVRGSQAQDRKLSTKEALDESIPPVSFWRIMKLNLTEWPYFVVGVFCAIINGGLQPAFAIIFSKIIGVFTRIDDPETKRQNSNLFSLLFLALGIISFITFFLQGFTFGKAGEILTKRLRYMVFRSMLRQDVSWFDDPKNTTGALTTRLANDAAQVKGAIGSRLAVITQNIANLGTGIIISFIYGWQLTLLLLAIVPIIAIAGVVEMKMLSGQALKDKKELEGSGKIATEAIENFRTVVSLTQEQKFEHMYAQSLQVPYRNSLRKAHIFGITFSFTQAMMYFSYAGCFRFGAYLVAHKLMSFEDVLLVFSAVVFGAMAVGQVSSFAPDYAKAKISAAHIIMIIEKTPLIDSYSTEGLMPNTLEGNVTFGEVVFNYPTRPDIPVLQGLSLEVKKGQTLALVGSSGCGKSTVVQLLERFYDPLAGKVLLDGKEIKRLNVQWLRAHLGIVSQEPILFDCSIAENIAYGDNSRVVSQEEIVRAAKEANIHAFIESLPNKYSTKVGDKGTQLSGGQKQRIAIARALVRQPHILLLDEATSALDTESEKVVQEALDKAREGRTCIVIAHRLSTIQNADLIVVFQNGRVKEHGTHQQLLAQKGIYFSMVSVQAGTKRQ

MDCK-MDR1 ER	Compound
0.83	9-fluoro-7-((R)-1-hydroxy-2-((3aS,5S,6aR)-3a-hydroxy-5-phenoxyhexahydrocyclopenta[c]pyrrol-2(1H)-yl)ethyl)-1,5-dihydrobenzo[e][1,4]oxazepin-2(3H)-one [Example 32A]
